For 6 compounds, GI50 and TGI results are on record in PubChem BioAssay (NCI).

Values joined by “and” are separate entries in the source; they are usually repeats but may differ in a detail not shown here. Equal entries are not always repeated.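 Step 1: Grow cells in 96-well plates. Step 2: Expose to compound for 48 hours at 5 concentrations. Step 3: Interpolate endpoints linearly; if unreached, use highest concentration. GI50: concentration for 50% inhibition of growth. TGI: total growth inhibition.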

Test systems include HS 578T breast; SK-MEL-2 melanoma; MALME-3M melanoma; SNB-75 CNS; UACC-62 melanoma; SK-MEL-28 melanoma; NCI/ADR-RES ovarian; PC-3 prostate; U251 CNS; CCRF-CEM leukemia.
Common to all, as to test: inhibition of tumour cell growth, NCI panel, 48 h

For `O=C1C=C[C@H](O)[C@@]2(CO)O[C@@H]12`, the GI50 in the experiment with HS 578T breast is 30.6 µM; with SK-MEL-2 melanoma, 14.6 µM; in the experiment with MALME-3M melanoma it was 2.53 µM; with SNB-75 CNS, 11.3 µM; in the experiment on UACC-62 melanoma, 4.55 µM; in the experiment with SK-MEL-28 melanoma, 12.8 µM. For the same compound, the GI50 in the experiment with NCI/ADR-RES ovarian was 16.6 µM; in the experiment with PC-3 prostate, 16.3 µM; in the experiment with U251 CNS, 9.26 µM; with CCRF-CEM leukemia it was 2.7 µM. Besides, the TGI in the experiment with HS 578T breast was over 83.6 µM; with SK-MEL-2 melanoma, 33.5 µM; in the experiment with MALME-3M melanoma, 9.32 µM; with SNB-75 CNS it was 23.4 µM; with UACC-62 melanoma, 14.3 µM; in the experiment with SK-MEL-28 melanoma it was 25.7 µM. Moreover, the TGI in the experiment on NCI/ADR-RES ovarian came out at 45.8 µM; with PC-3 prostate, 39.5 µM; in the experiment on U251 CNS, 23.2 µM; with CCRF-CEM leukemia, 12.3 µM.
Take `c1ccc(-c2[nH]ncc2-c2ccnc(-c3ccc(OCCn4ccnc4)cc3)c2)nc1`: the GI50 with HS 578T breast was over 25 µM; in the experiment on SK-MEL-2 melanoma, over 25 µM; in the experiment with MALME-3M melanoma it was 12.2 µM; with SNB-75 CNS, over 25 µM; in the experiment on UACC-62 melanoma, over 25 µM; in the experiment on SK-MEL-28 melanoma, over 25 µM. Also, the GI50 in the experiment on NCI/ADR-RES ovarian was over 25 µM; in the experiment on PC-3 prostate, 13.2 µM; in the experiment with U251 CNS it was over 25 µM; in the experiment with CCRF-CEM leukemia it was 17.3 µM. For the same compound, the TGI with HS 578T breast, in the experiment with SK-MEL-2 melanoma, with MALME-3M melanoma, with SNB-75 CNS, with UACC-62 melanoma and in the experiment with SK-MEL-28 melanoma was over 25 µM in each case. Also, the TGI with NCI/ADR-RES ovarian, in the experiment with PC-3 prostate, in the experiment on U251 CNS and in the experiment with CCRF-CEM leukemia was over 25 µM each time.
For the compound `Cc1ccc(O)cc1Nc1ccnc2ccc(S(C)(=O)=O)cc12`, the GI50 in the experiment with HS 578T breast is 0.42 µM; in the experiment on SK-MEL-2 melanoma, 6.91 µM; with MALME-3M melanoma it was 0.892 µM; with SNB-75 CNS it was 0.106 µM; with UACC-62 melanoma, 0.843 µM; in the experiment on SK-MEL-28 melanoma, 1.98 µM. Also, the GI50 is 15.9 µM in the experiment on NCI/ADR-RES ovarian, 4.2 µM in the experiment with PC-3 prostate, 5.22 µM with U251 CNS and over 25 µM with CCRF-CEM leukemia. Also, the TGI in the experiment with HS 578T breast was 4.25 µM; with SK-MEL-2 melanoma, 24.9 µM; in the experiment with MALME-3M melanoma, 9.35 µM; in the experiment with SNB-75 CNS it was 1.28 µM; in the experiment on UACC-62 melanoma it was 10.4 µM; in the experiment with SK-MEL-28 melanoma, over 25 µM. The TGI with NCI/ADR-RES ovarian, in the experiment with PC-3 prostate, with U251 CNS and with CCRF-CEM leukemia was over 25 µM each time.
For the compound `CC1=C(C(=O)Nc2ccccc2)C(c2ccc(N(C)C)cc2)C(C(=O)Nc2ccccc2)=C(C)N1`, the TGI was over 100 µM in the experiment on HS 578T breast; over 100 µM with SK-MEL-2 melanoma; 39.6 µM with MALME-3M melanoma; over 100 µM in the experiment on SNB-75 CNS; 23.9 µM with UACC-62 melanoma; 36.6 µM with SK-MEL-28 melanoma. In addition, the TGI in the experiment with NCI/ADR-RES ovarian is over 100 µM; in the experiment with PC-3 prostate, over 100 µM; in the experiment on U251 CNS, over 72.4 µM; in the experiment with CCRF-CEM leukemia, 57.7 µM.
As to `Cc1cc(O)c2c(c1)C(=O)C=CC2=O`, the TGI in the experiment with HS 578T breast is 54.6 µM and 64.3 µM; in the experiment with SK-MEL-2 melanoma it was 36.8 µM and 44.3 µM; in the experiment with MALME-3M melanoma it was 23.2 µM and 8.39 µM; in the experiment with SNB-75 CNS it was 34 µM and 30 µM; with UACC-62 melanoma, 18.9 µM and 25.3 µM; in the experiment on SK-MEL-28 melanoma, 35.5 µM and 23.6 µM. Besides, the TGI in the experiment on NCI/ADR-RES ovarian is 37 µM and 47.2 µM; in the experiment with PC-3 prostate, 46.3 µM and 25.5 µM; in the experiment on U251 CNS, 33.7 µM and 23.4 µM; in the experiment on CCRF-CEM leukemia, 0.564 µM and 1.19 µM. Also, the GI50 with MALME-3M melanoma is 10.2 µM and 1.86 µM; with SK-MEL-28 melanoma it was 20.4 µM and 8.89 µM; in the experiment on U251 CNS, 14.2 µM and 5.29 µM.
For `COc1cc2c(N3CCN(C(=O)Nc4ccc(OC(C)C)cc4)CC3)ncnc2cc1OCCCN1CCCCC1`, the GI50 in the experiment with HS 578T breast is 10.4 µM; with SK-MEL-2 melanoma it was 15.6 µM; in the experiment with MALME-3M melanoma it was 14.3 µM; in the experiment on SNB-75 CNS it was 3.29 µM; in the experiment on UACC-62 melanoma, 15.8 µM; with SK-MEL-28 melanoma, 15.1 µM. Also, the GI50 with NCI/ADR-RES ovarian is 53.1 µM; in the experiment on PC-3 prostate, 18.8 µM; with U251 CNS it was 14 µM; with CCRF-CEM leukemia it was 18.3 µM. Besides, the TGI in the experiment with HS 578T breast was found to be 61.1 µM; in the experiment with SK-MEL-2 melanoma, 32.3 µM; in the experiment on MALME-3M melanoma, 29 µM; in the experiment on SNB-75 CNS, 26.4 µM; in the experiment with UACC-62 melanoma it was 31 µM; in the experiment with SK-MEL-28 melanoma, 30.9 µM. Moreover, the TGI in the experiment with NCI/ADR-RES ovarian was over 100 µM; in the experiment on PC-3 prostate, over 100 µM; in the experiment with U251 CNS it was 41.8 µM; in the experiment with CCRF-CEM leukemia, over 79.3 µM.
